Laboratory results published in ChEMBL document CHEMBL5052819, “Peptide targeting gip and glp-2 receptors for treating bone disorders” (2020).
Calls of active or inactive are those of the source. The rule behind the calls is not given here.

Tests used:
Mus musculus [1] = experiment: Anti-osteoporosis activity in ovariectomized BALB/c mouse at 100 nmol/kg, sc assessed as decrease in augmented acid phosphate content heterogeneity; assay type: functional; design: scale not given: the % may be the effect or the level left
[2] = Toxicity in ovariectomized BALB/c mouse at 25 nmol/kg, sc assessed as effect on morphological changes in pancreas; assay type: organism-based; settings: in vivo
Mus musculus [3] = experiment: Anti-osteoporosis activity in ovariectomized BALB/c mouse at 25 to 100 nmol/kg/day, sc assessed as effect on cortical bone microarchitecture; assay type: functional, organism-based; settings: dose 25-100 nmol/kg
RAW264.7 = experiment: Inhibition of RANKL-induced osteoclastogenesis in mouse RAW264.7 cells measured after 110 hrs by TRAcP staining based assay; assay type: functional, cell-based; settings: RAW264.7, 110 h
Mus musculus [4] = experiment: Anti-osteoporosis activity in ovariectomized BALB/c mouse at 25 nmol/kg, sc assessed as reduction in trabecular spacing; assay type: functional; design: scale not given: the % may be the effect or the level left
Mus musculus [5] = experiment: Anti-osteoporosis activity in ovariectomized BALB/c mouse at 25 to 100 nmol/kg/day, sc assessed as reduction in trabecular bone stiffness; assay type: functional, organism-based; settings: dose 25-100 nmol/kg
Mus musculus [6] = experiment: Anti-osteoporosis activity in ovariectomized BALB/c mouse at 100 nmol/kg/day, sc assessed as increase in ultimate displacement of cortical bone; assay type: functional
Mus musculus [7] = experiment: Anti-osteoporosis activity in ovariectomized BALB/c mouse at 100 nmol/kg/day, sc assessed as increase in post-yield displacement of cortical bone; assay type: functional
[8] = Toxicity in ovariectomized BALB/c mouse at 25 nmol/kg, sc assessed as effect on morphological changes in liver; assay type: organism-based; settings: in vivo
Mus musculus [9] = experiment: Anti-osteoporosis activity in ovariectomized BALB/c mouse at 100 nmol/kg/day, sc assessed as increase in work-to-fracture of cortical bone; assay type: functional
Mus musculus [10] = experiment: Anti-osteoporosis activity in ovariectomized BALB/c mouse at 100 nmol/kg, sc assessed as decrease in mean phosphate/amide ratio; assay type: functional; design: scale not given: the % may be the effect or the level left
Mus musculus [11] = experiment: Anti-osteoporosis activity in ovariectomized BALB/c mouse at 100 microg/kg, iv assessed as increase in trabecular number; assay type: functional; settings: dose 100 µg/kg
Mus musculus [12] = experiment: Anti-osteoporosis activity in ovariectomized BALB/c mouse at 100 microg/kg, iv assessed as increase in mineral crystallinity heterogeneity; assay type: functional; settings: dose 100 µg/kg
Mus musculus [13] = experiment: Anti-osteoporosis activity in ovariectomized BALB/c mouse at 100 microg/kg, iv assessed as reduction in trabecular bone stiffness; assay type: functional, organism-based; settings: dose 100.0 µg/kg
Mus musculus [14] = experiment: Anti-osteoporosis activity in ovariectomized BALB/c mouse at 100 microg/kg, iv assessed as increase in trabecular bone mass; assay type: functional; settings: dose 100 µg/kg
[15] = Toxicity in ovariectomized BALB/c mouse assessed as effect on body mass at 100 microg/kg, iv; settings: in vivo, 0.1 mg/kg, dose 100 µg/kg
Mus musculus [16] = experiment: Anti-osteoporosis activity in ovariectomized BALB/c mouse at 100 microg/kg, iv assessed as effect on cortical bone microarchitecture; assay type: functional, organism-based; settings: dose 100.0 µg/kg

SMILES | Activity (Mus musculus [1]) | Activity [2] | Activity (Mus musculus [3]) | IC50 (RAW264.7) | Activity (Mus musculus [4]) | Activity (Mus musculus [5]) | Activity (Mus musculus [6]) | Activity (Mus musculus [7]) | Activity [8] | Activity (Mus musculus [9]) | Activity (Mus musculus [10]) | Activity (Mus musculus [11]) | Activity (Mus musculus [12]) | Activity (Mus musculus [13]) | Activity (Mus musculus [14]) | Activity [15] | Activity (Mus musculus [16])
CC[C@H](C)[C@H](NC(=O)[C@H](CO)NC(=O)[C@H](Cc1ccccc1)NC(=O)[C@H](CC(=O)O)NC(=O)[C@H](CO)NC(=O)CNC(=O)[C@H](Cc1ccccc1)NC(=O)[C@H](CO)NC(=O)CNC(=O)[C@H](CCC(=O)O)NC(=O)CNC(=O)[C@@H](N)Cc1cnc[nH]1)C(=O)N[C@@H](C)C(=O)N[C@@H](CC(C)C)C(=O)N[C@@H](CC(=O)O)C(=O)N[C@@H](CCCCN)C(=O)N[C@@H](CC(C)C)C(=O)N[C@@H](C)C(=O)N[C@@H](C)C(=O)N[C@@H](CCCNC(=N)N)C(=O)N[C@@H](CC(=O)O)C(=O)N[C@@H](Cc1ccccc1)C(=O)N[C@H](C(=O)N[C@@H](CC(N)=O)C(=O)N[C@@H](Cc1c[nH]c2ccccc12)C(=O)N[C@@H](CC(C)C)C(=O)N[C@@H](CC(C)C)C(=O)N[C@@H](CCC(N)=O)C(=O)N[C@H](C(=O)N[C@@H](CCCCN)C(N)=O)[C@@H](C)O)C(C)C | 18% | Non-Toxic | inactive | 0.036 nM | 17% | Active | 33% | 62% | Non-Toxic | 33% | 5% | – | – | – | – | – | –
O.O=P(O)(O)C(O)(Cn1ccnc1)P(=O)(O)O [ZOLEDRONIC ACID] | – | – | – | – | – | – | – | – | – | – | – | 12% | 21% | Active | 15% | Non-Toxic | inactive
